From BigSolDB 2.1

C/C(=C/C(C)=N/c1c(C(C)C)cccc1C(C)C)Nc1c(C(C)C)cccc1C(C)C
solubility (mole fraction)
Conditions	in THF	in ethanol	in methanol	in n-hexane	in toluene
268.15 K	0.101	0.0008	–	0.0374	0.054
273.15 K	0.108	0.0009	–	0.0417	0.061
278.15 K	0.114	0.001	–	0.0464	0.0673
283.15 K	0.122	0.0013	0.0001	0.048	0.078
288.15 K	0.138	0.0015	0.0002	0.0546	0.087
293.15 K	0.15	0.0019	0.0002	0.0609	0.099
298.15 K	0.169	0.0022	0.0003	0.0699	0.108
303.15 K	0.184	0.0025	0.0004	0.078	0.127
308.15 K	0.199	0.003	0.0005	0.0891	0.145
313.15 K	0.223	0.0036	0.0007	0.103	0.151
318.15 K	–	–	0.0008	–	–
